Measurements taken from the supplement of paper PMC10307832.

How the values were obtained:
Assay in all cases: relative viability (nuclei count vs DMSO), 5 days (fraction); higher = more cells survive
[1] = compound: C1=CC=C(C(=C1)C2=CC=C(C=C2)C3=CSC4=C3C(=C(C(=O)N4)C#N)O)O + CC(=O)c1c(C)c2cnc(Nc3ccc(N4CCNCC4)cn3)nc2n(C2CCCC2)c1=O [Palbociclib] (partner 0.5 µM)
Summary of the method: (§1)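 One day after seeding in 1536-well plates, lung cancer cell lines were dosed by pin tool. Dosing was either single-drug or a fixed anchor-drug dose plus five library-drug doses (not always all listed) in √10 steps. After 5 days, nuclei were stained in one fix-and-stain step and counted on 4× images, and relative viability is the nuclei count of treated wells over that of vehicle wells, given as the median of duplicate plates.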

[2] = compound: C1=CC=C(C(=C1)C2=CC=C(C=C2)C3=CSC4=C3C(=C(C(=O)N4)C#N)O)O + CS(=O)(=O)N1CCN(Cc2cc3nc(-c4cccc5[nH]ncc45)nc(N4CCOCC4)c3s2)CC1 [Pictilisib] (partner 1 µM)
Summary of the method: as §1

[3] = compound: O=C(CCCCCCNC(=O)c1cnc(N(c2ccccc2)c2ccccc2)nc1)NO [Ricolinostat] + C[C@]1(O)C[C@@H](c2nc(-c3ccc4ccc(-c5ccccc5)nc4c3)c3c(N)nccn32)C1 [Linsitinib] (partner 1 µM)
Summary of the method: as §1

[4] = compound: O=C(CCCCCCNC(=O)c1cnc(N(c2ccccc2)c2ccccc2)nc1)NO [Ricolinostat] + CC1(C)CCC(c2ccc(Cl)cc2)=C(CN2CCN(c3ccc(C(=O)NS(=O)(=O)c4ccc(N[C@H](CCN5CCOCC5)CSc5ccccc5)c(S(=O)(=O)C(F)(F)F)c4)cc3)CC2)C1 [Navitoclax] (partner 0.5 µM)
Summary of the method: as §1

Row | Cell Line | relative viability ([1]; first compound 0.08 µM) | relative viability ([1]; first compound 0.253 µM) | relative viability ([1]; first compound 0.8 µM) | relative viability ([1]; first compound 2.53 µM) | relative viability ([1]; first compound 8 µM) | relative viability ([2]; first compound 0.08 µM) | relative viability ([2]; first compound 0.253 µM) | relative viability ([2]; first compound 0.8 µM) | relative viability ([2]; first compound 2.53 µM) | relative viability ([2]; first compound 8 µM) | relative viability ([3]; first compound 0.08 µM) | relative viability ([3]; first compound 0.253 µM) | relative viability ([3]; first compound 0.8 µM) | relative viability ([3]; first compound 2.53 µM) | relative viability ([4]; first compound 0.08 µM) | relative viability ([4]; first compound 0.253 µM) | relative viability ([4]; first compound 0.8 µM) | relative viability ([4]; first compound 2.53 µM)
1 | A-427 | 0.551 | 0.535 | 0.504 | 0.553 | 0.543 | 0.577 | 0.751 | 0.683 | 0.75 | 0.886 | 0.958 | 1.07 | 1.01 | 0.875 | 0.861 | 0.906 | 0.89 | 0.754
2 | NCI-H1975 | 0.464 | 0.483 | 0.511 | 0.539 | 0.4 | 0.272 | 0.308 | 0.231 | 0.271 | 0.264 | 0.998 | 0.878 |  | 0.835 | 1.07 | 1.1 |  | 0.877
3 | HCC-827 | 0.492 | 0.518 | 0.479 | 0.475 | 0.524 | 1.11 | 1.05 | 0.819 | 0.996 | 0.986 | 0.896 | 0.91 | 0.966 | 1.02 | 0.95 | 1.02 | 1.01 | 0.909
4 | UMC-11 | 0.369 | 0.374 | 0.336 | 0.345 | 0.366 | 0.695 | 0.717 | 0.855 | 0.829 | 0.778 | 1.02 | 0.932 | 1 | 0.723 | 0.31 | 0.343 | 0.267 | 0.158
5 | NCI-H3122 | 0.203 | 0.214 | 0.186 | 0.21 | 0.231 | 0.6 | 0.666 | 0.676 | 0.682 | 0.662 | 1.01 | 1.02 | 1.13 | 1.05 | 0.918 | 0.984 | 1.07 | 1.14
6 | LXF-289 | 0.612 | 0.595 | 0.681 | 0.629 | 0.675 | 0.677 | 0.831 | 0.781 | 0.81 | 0.779 | 0.93 | 0.956 | 0.966 | 0.962 | 0.904 | 0.927 | 0.914 | 0.878
7 | NCI-H647 |  | 0.387 | 0.392 | 0.346 | 0.22 | 0.226 | 0.449 | 0.515 | 0.377 | 0.389 | 1.13 | 1.23 | 1.16 | 0.698 | 0.806 | 1.12 | 1.09 | 1.09
8 | COR-L23 | 0.297 | 0.384 | 0.374 | 0.323 | 0.243 | 0.757 | 0.581 | 0.813 | 0.728 | 0.575 | 0.726 | 0.854 | 0.897 | 0.543 | 0.943 | 1.07 | 0.978 | 0.511
9 | BEN | 0.582 | 0.514 | 0.481 | 0.474 | 0.507 | 0.547 | 0.597 | 0.437 | 0.547 | 0.428 | 0.795 | 0.751 | 0.953 | 0.592 | 0.0553 | 0.084 | 0.0569 | 0.0652
10 | LC-2-ad | 0.416 | 0.406 | 0.461 | 0.499 | 0.441 | 0.42 | 0.537 | 0.374 | 0.473 | 0.355 | 0.799 | 0.834 | 0.825 | 0.684 | 0.535 | 0.485 | 0.506 | 0.334
11 | NCI-H650 | 0.305 | 0.357 | 0.329 | 0.273 | 0.344 | 0.978 | 0.975 | 0.841 | 0.86 | 0.91 |  | 0.853 | 0.563 | 0.439 |  |  |  | 
12 | NCI-H1563 |  |  |  |  |  | 0.629 | 0.655 | 0.689 | 0.703 | 0.637 | 1.19 | 1.12 | 1.08 | 0.982 |  |  |  | 
13 | NCI-H1793 | 0.255 | 0.422 | 0.316 | 0.285 | 0.261 | 0.379 | 0.352 | 0.269 | 0.312 | 0.242 |  | 0.802 | 0.743 | 0.81 |  | 0.547 | 0.499 | 0.853
14 | HCC-78 | 0.463 | 0.477 | 0.45 | 0.602 | 0.413 | 0.169 | 0.286 | 0.205 | 0.192 | 0.196 |  | 0.551 | 0.417 | 0.271 |  | 0.771 | 0.561 | 0.435
15 | LCLC-97TM1 | 0.24 | 0.233 | 0.268 | 0.26 | 0.204 | 0.168 | 0.284 | 0.198 | 0.2 | 0.176 | 0.171 | 0.199 | 0.231 | 0.172 | 0.41 | 0.431 | 0.485 | 0.357
16 | NCI-H2009 | 0.19 | 0.196 | 0.174 | 0.22 | 0.228 | 0.893 | 0.829 | 0.771 | 0.84 | 0.787 | 1.08 | 1.15 | 1.09 | 0.952 | 1.14 | 1.11 | 1.09 | 1.07
17 | H3255 | 0.311 | 0.346 | 0.294 | 0.31 | 0.319 | 0.483 | 0.514 | 0.447 | 0.536 | 0.467 | 0.78 | 0.879 | 0.878 | 0.854 | 0.537 | 0.495 | 0.483 | 0.483
18 | EPLC-272H | 0.329 |  | 0.281 | 0.336 | 0.304 |  | 0.251 | 0.264 | 0.299 | 0.292 |  | 0.894 | 1.21 | 0.772 |  | 0.784 | 0.992 | 0.631
19 | NCI-H1734 | 0.324 | 0.295 | 0.261 | 0.33 | 0.377 | 0.46 | 0.485 | 0.444 | 0.477 | 0.493 | 0.737 | 0.843 | 0.961 | 1 | 0.645 | 0.826 | 0.924 | 0.78
